In ChEMBL document CHEMBL2385060, “A dihydrochalcone and several homoisoflavonoids from Polygonatum odoratum are activators of adenosine monophosphate-activated protein kinase” (Bioorg Med Chem Lett, 2013):
The source made the active and inactive calls. The rule behind the calls is not given here.

What was measured:
Format in all cases: cell-based
[1] = target: 5'-AMP-activated protein kinase catalytic subunit alpha-2 (Rattus norvegicus) (UniProt Q09137); test: Inhibition of AMPK in rat IAR-20 cells assessed as phosphorylated acetyl CoA carboxylase level at 10 uM after 30 mins by Western blot analysis
[2] = target: 5'-AMP-activated protein kinase catalytic subunit alpha-2 (Rattus norvegicus) (UniProt Q09137); test: Inhibition of AMPK in rat IAR-20 cells assessed as phosphorylated protein level at 10 uM after 30 mins by Western blot analysis
[3] = target: 5'-AMP-activated protein kinase catalytic subunit alpha-2 (Rattus norvegicus) (UniProt Q09137); test: Activation of AMPK in rat IAR-20 cells assessed as phosphorylated acetyl CoA carboxylase level at 10 uM after 30 mins by Western blot analysis
[4] = target: 5'-AMP-activated protein kinase catalytic subunit alpha-2 (Rattus norvegicus) (UniProt Q09137); test: Activation of AMPK in rat IAR-20 cells assessed as phosphorylated protein level at 10 uM after 30 mins by Western blot analysis

5'-AMP-activated protein kinase catalytic subunit alpha-2 (Rattus norvegicus), sequence (Q09137 whole entry): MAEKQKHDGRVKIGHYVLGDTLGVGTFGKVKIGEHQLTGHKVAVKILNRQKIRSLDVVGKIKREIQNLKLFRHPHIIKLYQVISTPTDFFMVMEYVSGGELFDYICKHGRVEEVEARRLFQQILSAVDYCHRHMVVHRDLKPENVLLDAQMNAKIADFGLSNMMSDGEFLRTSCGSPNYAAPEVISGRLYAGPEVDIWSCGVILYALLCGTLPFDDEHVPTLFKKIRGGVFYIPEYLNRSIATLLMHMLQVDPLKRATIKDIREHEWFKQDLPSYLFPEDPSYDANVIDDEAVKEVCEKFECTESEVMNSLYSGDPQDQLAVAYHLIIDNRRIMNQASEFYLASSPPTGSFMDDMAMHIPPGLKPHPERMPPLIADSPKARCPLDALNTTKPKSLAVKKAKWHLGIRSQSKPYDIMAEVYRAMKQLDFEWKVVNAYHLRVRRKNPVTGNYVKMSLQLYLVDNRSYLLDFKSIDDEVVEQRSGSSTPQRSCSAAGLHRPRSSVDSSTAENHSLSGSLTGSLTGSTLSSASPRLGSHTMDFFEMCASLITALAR

inhibition [1] | inhibition [2] | Activity [3] | Activity [4] | SMILES
Active | Active | – | – | COc1c(O)c(C)c(O)c2c1OC[C@@](O)(Cc1ccc(O)cc1)C2=O
Active | Active | – | – | Cc1c(O)c(C)c2c(c1O)C(=O)[C@](O)(Cc1ccc(O)cc1)CO2
– | – | Active | Active | COc1c(O)c(C)c(O)c2c1OC[C@@H](Cc1ccc(O)cc1)C2=O

The next lines start with the molecule.

SMILES | inhibition [1] | inhibition [2] | Activity [3] | Activity [4]
Cc1c(O)cc2c(c1O)C(=O)[C@H](Cc1ccc(O)cc1)CO2 | – | – | Active | Active
COc1ccc(CC2COc3c(OC)c(O)cc(O)c3C2=O)c(O)c1 (centres undefined) | Active | Active | – | –
Cc1c(O)c(C)c2c(c1O)C(=O)[C@H](Cc1ccc(O)cc1)CO2 | – | – | Active | Active
COc1cc(O)c(C)c(O)c1C(=O)CCc1ccc(O)cc1 | – | – | Active | Active
